In patent publication US20260272924A1, “ISOINDOLINE DERIVATIVE, BENZOINDOLE DERIVATIVE AND USE THEREOF” (SHANGHAI HELIOSON PHARMACEUTICAL CO., LTD., priority 2023, published 2026):

Tested on: NCI-H929 multiple myeloma cells
Test: Cell Titer-GLO (CTG) assay for proliferation of NCI-H929 cells
Type: cell-based
Details: Homo sapiens, 72 hours
Protocol: 1. Experimental objective: To determine inhibitory activities of compounds on NCI-H929 multiple myeloma cells.
NCI-H929 cells, purchased from Nanjing Cobioer Biotechnology Co., Ltd, were cultured in RPM11640 (Viva; C3010-0500) medium containing 10% fetal bovine serum (Viva, C04002-500) and 1% of penicillin-streptomycin at 37° C. with 5% of C02 and saturated humidity conditions.
The cells in logarithmic growth phase were plated at 5000 cells per well of a 96-well plate and after overnight incubation, compounds at 0.00512 nM, 0.0256 nM, 0.128 nM, 0.64 nM, 3.2 nM, 16 nM, 80 nM, and 400 nM were dosed into the plate with each dose in 2 duplicate wells. Cells were incubated at 37° C., 5% CO2 for 72 hours. After the incubation, the plate was placed at room temperature for half an hour, and then 50 μL of Cell Titer-Glo® (Promega, G7573) was added. The plate was placed on a shaker for uniform mixing for 2 minutes and was placed in the dark at room temperature for 10 minutes. The luminance signal was measured using SpectraMax Paradigm (Molecular Devices).
Cell activity inhibition rate (%)=1 00−(RLUcompound−RLUblank)/(RLUcontrol−RLUblank)×100%, where control refers to the 0.1% DMSO treatment group, and blank refers to the culture medium control. IC50 values and maximum inhibition rates of the compounds were calculated using a nonlinear regression function “Dose-Response-Inhibition” in Graphpad Prism 7.0.

Row | Compound | IC50 [nM]
1 | Cc1ncn(-c2nc(N3CCN(C4CN(Cc5ccc(Cc6ccc7c8c(cccc68)C(=O)N7C6CCC(=O)NC6=O)cc5)C4)CC3)cc(C(F)(F)F)n2)n1 (centres unmarked) [Example 52, 3-(6-(4-((3-(4-(2-(3-methyl-1H-1,2,4-triazol-1-yl)-6-(trifluoromethyl)pyrimidin-4-yl)piperazin-1-yl)azetidin-1-yl)methyl)benzyl)-2-oxobenzo[cd]indol-1(2H)-yl)piperidin-2,6-dione] | 0.01
2 | O=C1CCC(N2C(=O)c3cccc4c(Cc5ccc(CN6CCN(c7cc(C(F)(F)F)nc(-c8cncs8)n7)CC6)cc5)ccc2c34)C(=O)N1 (centres unmarked) [Example 59, 3-(2-oxo-6-(4-((4-(2-(thiazol-5-yl)-6-(trifluoromethyl)pyrimidin-4-yl)piperazin-1-yl)methyl)benzyl)benzo[cd]indol-1(2H)-yl)piperidin-2,6-dione] | 0.2
3 | N#Cc1cn(-c2nc(N3CCN(Cc4ccc(Cc5ccc6c7c(cccc57)C(=O)N6C5CCC(=O)NC5=O)cc4)CC3)cc(C(F)(F)F)n2)cn1 (centres unmarked) [Example 75, 3-(6-(4-((4-(2-(4-cyano-1H-imidazol-1-yl)-6-(trifluoromethyl)pyrimidin-4-yl)piperazin-1-yl)methyl)benzyl)-2-oxobenzo[cd]indol-1(2H)-yl)piperidin-2,6-dione] | 0.02
4 | Cc1nc(N2CCN(Cc3ccc(Cc4ccc5c6c(cccc46)C(=O)N5C4CCC(=O)NC4=O)cc3)CC2)cc(-n2ncc(C(F)(F)F)n2)n1 (centres unmarked) [Example 76, 3-(6-(4-((4-(2-methyl-6-(4-(trifluoromethyl)-2H-1,2,3-triazol-2-yl)pyrimidin-4-yl)piperazin-1-yl)methyl)benzyl)-2-oxobenzo[cd]indol-1(2H)-yl)piperidin-2,6-dione] | 0.1
5 | O=C1CC[C@H](N2Cc3c(OCc4ccc(CN5CCN([C@H]6CC[C@H](NC(=O)c7cccc(-n8ccnc8)n7)CC6)CC5)cc4)cccc3C2=O)C(=O)N1 [Example 16, N-((1R,4R)-4-(4-(4-(((2-((S)-2,6-dioxopiperidin-3-yl)-1-oxoisoindolin-4-yl)oxy)methyl)benzyl)piperazin-1-yl)cyclohexyl)-6-(1H-imidazol-1-yl)pyridin-2-carboxamide] | 0.05
6 | Cc1nc(N2CCN(C3CN(Cc4ccc(Cc5ccc6c7c(cccc57)C(=O)N6C5CCC(=O)NC5=O)cc4)C3)CC2)cc(-n2cnc(C)n2)n1 (centres unmarked) [Example 48, 3-(6-(4-((3-(4-(2-methyl-6-(3-methyl-1H-1,2,4-triazol-1-yl)pyrimidin-4-yl)piperazin-1-yl)azetidin-1-yl)methyl)benzyl)-2-oxobenzo[cd]indol-1(2H)-yl)piperidin-2,6-dione] | 0.002
7 | Cc1nc(N2CCN(Cc3ccc(Cc4ccc5c6c(cccc46)C(=O)N5C4CCC(=O)NC4=O)cc3)CC2)cc(-n2cc(C(F)(F)F)nn2)n1 (centres unmarked) [Example 73, 3-(6-(4-((4-(2-methyl-6-(4-(trifluoromethyl)-1H-1,2,3-triazol-1-yl)pyrimidin-4-yl)piperazin-1-yl)methyl)benzyl)-2-oxobenzo[cd]indol-1(2H)-yl)piperidin-2,6-dione] | 0.03
8 | Cc1nc(N2CCN(Cc3ccc(COc4cccc5c4CN([C@H]4CCC(=O)NC4=O)C5=O)cc3)CC2)cc(-n2cnc(C(F)(F)F)c2)n1 [Example 72, (S)-3-(4-((4-((4-(2-methyl-6-(4-(trifluoromethyl)-1H-imidazol-1-yl)pyrimidin-4-yl)piperazin-1-yl)methyl)benzyl)oxy)-1-oxoisoindolin-2-yl)piperidin-2,6-dione] | 0.1
9 | O=C1CCC(N2C(=O)c3cccc4c(Cc5ccc(CN6CCN(c7cccc(-n8cnc(C(F)(F)F)n8)n7)CC6)cc5)ccc2c34)C(=O)N1 (centres unmarked) [Example 62, 3-(2-oxo-6-(4-((4-(6-(3-(trifluoromethyl)-1H-1,2,4-triazol-1-yl)pyridin-2-yl)piperazin-1-yl)methyl)benzyl)benzo[cd]indol-1(2H)-yl)piperidin-2,6-dione] | 0.07
10 | Cc1ncn(-c2ncc(F)c(N3CCN(C4CN(Cc5ccc(Cc6ccc7c8c(cccc68)C(=O)N7C6CCC(=O)NC6=O)cc5)C4)CC3)n2)n1 (centres unmarked) [Example 49, 3-(6-(4-((3-(4-(5-fluoro-2-(3-methyl-1H-1,2,4-triazol-1-yl)pyrimidin-4-yl)piperazin-1-yl)azetidin-1-yl)methyl)benzyl)-2-oxobenzo[cd]indol-1(2H)-yl)piperidin-2,6-dione] | 0.003

Now from value to molecule:

Row | IC50 [nM] | Compound
11 | 0.05 | Cc1cc(C(=O)N2CCN(Cc3ccc(Cc4ccc5c6c(cccc46)C(=O)N5C4CCC(=O)NC4=O)cc3)CC2)nc(-n2ccnc2)n1 (centres unmarked) [Example 11, 3-(6-(4-((4-(2-(1H-imidazol-1-yl)-6-methylpyrimidin-4-carbonyl)piperazin-1-yl)methyl)benzyl)-2-oxobenzo[cd]indol-1(2H)-yl)piperidin-2,6-dione]
12 | < 0.005 | O=C1CCC(N2C(=O)c3cccc4c(Cc5ccc(CN6CC(N7CCN(c8cccc(-n9ccnc9)n8)CC7)C6)cc5)ccc2c34)C(=O)N1 (centres unmarked) [Example 32]
13 | 0.02 | O=C1CCC(N2C(=O)c3cccc4c(Cc5ccc(CN6CCN(c7ccnc(-n8cnc(Cl)c8)n7)CC6)cc5)ccc2c34)C(=O)N1 (centres unmarked) [Example 43, 3-(6-(4-((4-(2-(4-chloro-1H-imidazol-1-yl)pyrimidin-4-yl)piperazin-1-yl)methyl)benzyl)-2-oxobenzo[cd]indol-1(2H)-yl)piperidin-2,6-dione]
14 | 0.02 | Cc1ncn(-c2ncc(F)c(N3CCN(Cc4ccc(Cc5ccc6c7c(cccc57)C(=O)N6C5CCC(=O)NC5=O)cc4)CC3)n2)n1 (centres unmarked) [Example 68, 3-(6-(4-((4-(5-fluoro-2-(3-methyl-1H-1,2,4-triazol-1-yl)pyrimidin-4-yl)piperazin-1-yl)methyl)benzyl)-2-oxobenzo[cd]indol-1(2H)-yl)piperidin-2,6-dione]
15 | 0.03 | O=C1CCC(N2C(=O)c3cccc4c(Cc5ccc(CN6CCN(c7ccnc(-c8cncs8)n7)CC6)cc5)ccc2c34)C(=O)N1 (centres unmarked) [Example 58, 3-(2-oxo-6-(4-((4-(2-(thiazol-5-yl)pyrimidin-4-yl)piperazin-1-yl)methyl)benzyl)benzo[fcd]indol-1(2H)-yl)piperidin-2,6-dione]
16 | 0.02 | O=C1CC[C@H](N2C(=O)c3cccc4c(Cc5ccc(CN6CCN(c7ccnc(-n8cnc(C(F)(F)F)c8)n7)CC6)cc5)ccc2c34)C(=O)N1 [Example 33, (S)-3-(2-oxo-6-(4-((4-(2-(4-(trifluoromethyl)-1H-imidazol-1-yl)pyrimidin-4-yl)piperazin-1-yl)methyl)benzyl)benzo[cd]indol-1(2H)-yl)piperidin-2,6-dione]
17 | 0.01 | N#Cc1cn(-c2nccc(N3CCN(Cc4ccc(Cc5ccc6c7c(cccc57)C(=O)N6C5CCC(=O)NC5=O)cc4)CC3)n2)cn1 (centres unmarked) [Example 44, 3-(6-(4-((4-(2-(4-cvano-1H-imidazol-1-yl)pyrimidin-4-yl)piperazin-1-yl)methyl)benzyl)-2-oxobenzo[cd]indol-1(2H)-yl)piperidin-2,6-dione]
18 | 0.03 | Cc1nncn1-c1cccc(N2CCN(Cc3ccc(Cc4ccc5c6c(cccc46)C(=O)N5C4CCC(=O)NC4=O)cc3)CC2)n1 (centres unmarked) [Example 28, 3-(6-(4-((4-(6-(3-methyl-4H-1,2,4-triazol-4-yl)pyridin-2-yl)piperazin-1-yl)methyl)benzyl)-2-oxobenzo[cd]indol-1(2H)-yl)piperidin-2,6-dione]
19 | 0.01 | Cc1nc(N2CCN(Cc3ccc(Cc4ccc5c6c(cccc46)C(=O)N5[C@H]4CCC(=O)NC4=O)cc3)CC2)cc(-n2cnc(C)n2)n1 [Example 46, (S)-3-(6-(4-((4-(2-methyl-6-(3-methyl-1H-1,2,4-triazol-1-yl)pyrimidin-4-yl)piperazin-1-yl)methyl)benzyl)-2-oxobenzo[cd]indol-1(2H)-yl)piperidin-2,6-dione]
20 | 0.02 | Cc1nnc(-c2cccc(N3CCN(Cc4ccc(Cc5ccc6c7c(cccc57)C(=O)N6[C@@H]5CCC(=O)NC5=O)cc4)CC3)n2)s1 [Example 36, (R)-3-(6-(4-((4-(6-(5-methyl-1,3,4-thiadiazol-2-yl)pyridin-2-yl)piperazin-1-yl)methyl)benzyl)-2-oxobenzo[cd]indol-1(2H)-yl)piperidin-2,6-dione]
21 | 0.02 | O=C1CCC(N2C(=O)c3cccc4c(Cc5ccc(CN6CCN(c7cccc(-n8ccnc8)n7)CC6)cc5)ccc2c34)C(=O)N1 (centres unmarked) [Example 2, 3-(6-(4-((4-(6-(1H-imidazol-1-yl)pyridin-2-yl)piperazin-1-vi)methyl)benzyl)-2-oxobenzo[cd]indol-1(2H)-yl)piperidin-2,6-dione]
22 | 0.2 | O=C1CCC(N2C(=O)c3cccc4c(Cc5ccc(CN6CC(CN7CCN(c8cccc(-n9ccnc9)n8)CC7)C6)cc5)ccc2c34)C(=O)N1 (centres unmarked) [Example 55, 3-(6-(4-((3-((4-(6-(1H-imidazol-1-yl)pyridin-2-yl)piperazin-1-yl)methyl)azetidin-1-yl)methyl)benzyl)-2-oxobenzo[cd]indol-1(2H)-yl)piperidin-2,6-dione]
23 | 0.07 | O=C1CCC(N2C(=O)c3cccc4c(Cc5ccc(CN6CCC(NC(=O)c7cccc(-n8ccnc8)n7)CC6)cc5)ccc2c34)C(=O)N1 (centres unmarked) [Example 6, N-(1-(4-((1-(2,6-dioxopiperidin-3-yl)-2-oxo-1,2-dihydrobenzo[cd]indol-6-yl)methyl)benzyl)piperidin-4-yl)-6-(1H-imidazol-1-yl)pyridin-2-carboxamide]
